Assay results published in patent US7741283B2, “Compositions and methods for inhibiting cell proliferation” (St. Louis University, priority 2003, dated 2010).

What was measured:
[1] = system: PEA-13 cells; experiment: Cell growth (cell number), PEA-13 cells; type: cell-based, mouse; conditions: IGFBP-3 up to 1 μg/ml
Procedure: (§1) FIG. 7 depicts the effect of TGF-β1 on DNA synthesis (A), cell growth (B) and PAI-1 expression (C) in MEF and PEA-13 cells. (A) Cells were treated with various concentrations of TGF-β1 as indicated. DNA synthesis was determined by measuring [methyl-^3H] thymidine incorporation into cellular DNA. The [methyl-^3H] thymidine incorporation in cells treated without TGF-β1 (100,861±3,720 and 103,262±6,722 cpm/well for MEF and PEA-13 cells, respectively) was taken as 0% inhibition. The negative values of inhibition indicate mitogenic activity. […] Each datapoint is the mean±S.D. of quadruplicate determinations. […] Data are representative of six similar experiments. (B) Cells were treated with various concentrations of TGF-β1 as indicated. The cell number was counted after a 4 day incubation. […] The negative values of the inhibition indicate the growth stimulatory activity. Each datapoint is the mean±S.D. of quadruplicate determinations. […] Data are representative of four similar experiments. (C) Cells were treated with various concentrations of TGF-β1 as indicated. The PAI-1 expression in these cells was determined by Northern blot analysis. […] The relative levels of the transcripts were quantified by a PhosphoImager. […]
(§2) Cells were plated at a density of 1-2×10^4 cells/dish in DMEM containing 1% fetal calf serum. The cell number was counted every day or after a 3-day incubation using a hematocytometer. […]

[2] = system: H1299/vector cells; experiment: Cell growth (cell number), H1299/vector cells; type: cell-based, human; conditions: TGF-β1 20 pM or IGFBP-3 1 μg/ml, 3-day
[3] = system: H1299/LRP cells; experiment: [methyl-3H] thymidine incorporation, H1299/LRP cells; type: cell-based, human; conditions: various concentrations
[4] = system: IRS-2; experiment: Determination of tyrosine phosphorylation of IRS-2, Mv1Lu cells; type: cell-based, mink
Procedure: FIG. 15 depicts tyrosine phosphorylation of IRS-2 in Mv1Lu cells treated with IGFBP-3 and insulin. Cells were stimulated with or without insulin (10 nM) for 10 min and then treated with or without IGFBP-3 (1 μg/ml) for 1 hr (A). On the other hand, cells pretreated with or without IGFBP-3 (1 μg/ml) for 2 hr and then stimulated with insulin (10 nM) for 10 min (B, lane 1 and lane 2, respectively). In a parallel experiment, cells were treated with insulin (10 nM) in the presence and absence of IGFBP-3 (1 μg/ml) for 2 hr (B, lane 3 and lane 4, respectively). […] The arrow indicates the location of tyrosine-phosphorylated IRS-2.
Mv1Lu cells were plated on 30-mm dishes at a cell density of 4×10^4/cm^2 in DMEM containing 10% fetal calf serum. The cells in serum-free DMEM were pre-treated with IGFBP-3 (1 μg/ml) for 1 or 2 hr and then treated with insulin (10 nM) for 10 min or treated with insulin (10 nM) for 10 min and then treated with IGFBP-3 (1 μg/ml) for a further 2 hr, or treated simultaneously with insulin (10 nM) and IGFBP-3 (1 μg/ml) for 2 hr. The experiments were carried out at 37° C. The cell lysates were subjected to immunoprecipitation using anti-IRS-2 IgG followed by 7.5% SDS-PAGE and Western blot analysis using anti-phosphotryosine IgG and the ECL system (Santa Cruz).

[5] = system: H1299/vector cells; experiment: [methyl-3H] thymidine incorporation, H1299/vector cells; type: cell-based, human; conditions: various concentrations
[6] = system: IRS-2; experiment: 32P metabolic labeling and immunoprecipitation of IRS-2, MB102-9 cells; type: cell-based, mink; conditions: MB102-9 cells (αIβII); IGFBP-3 1 μg/ml, GM-CSF 1 nM
[7] = system: PEA-C11 cells; experiment: [methyl-3H] thymidine incorporation, PEA-C11 cells; type: cell-based, mink; conditions: IGFBP-3 0.5 μg/ml
[8] = system: PEA-C11 cells; experiment: Cell growth (cell number), PEA-C11 cells; type: cell-based, mink; conditions: IGFBP-3 0.5 μg/ml, PEA-C11, 4-day
Procedure: FIG. 6 depicts the effects of IGFBP-3 and TGF-β1 on DNA synthesis (A), cell growth (B) and PAI-1 expression (C) in Mv1Lu and PEA-C11 cells. (A,B) Cells were incubated with various concentrations of IGFBP-3 (a) or TGF-β1 (b) as indicated. DNA synthesis and cell growth were determined by measuring the [methyl-^3H] thymidine incorporation into cellular DNA after 18 hr incubation (A) and by counting cell number after a 4-day incubation (B), respectively. The [methyl-^3H] thymidine incorporation in cells treated without IGFBP-3 and TGF-β1 (29,170±1,657 and 59,947±7,692 cpm/well for Mv1Lu and PEA-C11 cells, respectively) were taken as 0% inhibition. […] Each data point is the mean±S.D. of quadruplicate determinations. […] Data are representative of eight similar experiments. (C) Cells were incubated with various concentrations of TGF-β1 as indicated. After 2 hr at 37° C., the PAI-1 expression was determined by Northern blot analysis. The expression of glyceraldehyde-3-phosphate dehydrogenase (G3PDH) was used as control. The relative levels of the transcripts were quantified by a Phospholmager. Data are representative of four similar experiments.
Cells were plated at a density of 1-2×10^4 cells/dish in DMEM containing 1% fetal calf serum. The cell number was counted every day or after a 3-day incubation using a hematocytometer. The assays were performed in quadruplicate.

[9] = system: 32D cells expressing vector only; experiment: [methyl-3H] thymidine incorporation, 32D cells transfected with vector only; type: cell-based, murine
[10] = system: IRS-2; experiment: 32P metabolic labeling and immunoprecipitation of IRS-2, MB102-16 cells; type: cell-based, mink; conditions: MB102-16 cells (αIβI); IGFBP-3 1 μg/ml, GM-CSF 1 nM
[11] = system: PEA-13 cells; experiment: [methyl-3H] thymidine incorporation, PEA-13 cells; type: cell-based, mouse; conditions: IGFBP-3 up to 1 μg/ml
Procedure: (§3) FIG. 7 depicts the effect of TGF-β1 on DNA synthesis (A), cell growth (B) and PAI-1 expression (C) in MEF and PEA-13 cells. (A) Cells were treated with various concentrations of TGF-β1 as indicated. DNA synthesis was determined by measuring [methyl-^3H] thymidine incorporation into cellular DNA. The [methyl-^3H] thymidine incorporation in cells treated without TGF-β1 (100,861±3,720 and 103,262±6,722 cpm/well for MEF and PEA-13 cells, respectively) was taken as 0% inhibition. The negative values of inhibition indicate mitogenic activity. […] Each datapoint is the mean±S.D. of quadruplicate determinations. […] Data are representative of six similar experiments. (B) Cells were treated with various concentrations of TGF-β1 as indicated. The cell number was counted after a 4 day incubation. […] The negative values of the inhibition indicate the growth stimulatory activity. Each datapoint is the mean±S.D. of quadruplicate determinations. […] Data are representative of four similar experiments. (C) Cells were treated with various concentrations of TGF-β1 as indicated. The PAI-1 expression in these cells was determined by Northern blot analysis. The expression of G3PDH was used as control. The relative levels of the transcripts were quantified by a PhosphoImager. Data are representative of four similar experiments. […]

[12] = system: MEF cells; experiment: Cell growth (cell number), MEF cells; type: cell-based, mouse; conditions: IGFBP-3 up to 1 μg/ml
Procedure: as §1, §2

[13] = system: MEF cells; experiment: [methyl-3H] thymidine incorporation, MEF cells; type: cell-based, mouse; conditions: IGFBP-3 up to 1 μg/ml
Procedure: as §3

IGFBP-3: human insulin-like growth factor binding protein-3 expressed in E. Coli
Effect on cell growth [1]: did not appear to have a significant effect | Effect on cell growth [2]: acted as mitogens or growth stimulators | Effect on DNA synthesis [3]: inhibited | Effect on insulin-stimulated tyrosine phosphorylation of IRS-2 ([4]; IGFBP-3 pretreatment 2 hr, then insulin 10 nM 10 min): diminished | Effect on insulin-stimulated tyrosine phosphorylation of IRS-2 ([4]; insulin 10 nM 10 min, then IGFBP-3 1 μg/ml 1 hr): failed to affect | Effect on insulin-stimulated tyrosine phosphorylation of IRS-2 ([4]; simultaneous insulin 10 nM and IGFBP-3 1 μg/ml, 2 hr): enhancement | Effect on DNA synthesis [5]: acted as mitogens or growth stimulators | Specific dephosphorylation (mobility change) of IRS-2 [6]: induced specific dephosphorylation | Inhibition of DNA synthesis [7]: ~10% | Inhibition of cell growth [8]: ~45% | Inhibition of DNA synthesis [9]: minimally or not at all | Specific dephosphorylation (mobility change) of IRS-2 [10]: induced specific dephosphorylation | Effect on DNA synthesis [11]: did not appear to have a significant effect | Effect on cell growth [12]: did not appear to have a significant effect | Effect on DNA synthesis [13]: did not appear to have a significant effect
